Laboratory results published in patent US9115140B2, “Thienopyrimidine derivatives, processes for the preparation thereof and therapeutic uses thereof” (SANOFI, priority 2012, dated 2015).

Experiments:
[1] = biological target: GST-Alk protein (wild-type form 1058-1620) (Homo sapiens (Human), UniProt Q9UM73); assay: HTRF kinase test with GST-Alk protein, wild-type form (ATP 400 microM, enzyme 2 nM); assay type: biochemical; conditions: GST-Alk wild-type form 1058-1620, ATP 400 microM
[2] = biological target: GST-Alk protein (mutant L1196M 1058-1620) (Homo sapiens (Human), UniProt Q9UM73, L1196M); assay: HTRF kinase test with GST-Alk protein, mutant L1196M (ATP 200 microM, enzyme 1 nM); assay type: biochemical; conditions: GST-Alk mutant L1196M 1058-1620, ATP 200 microM
GST-Alk protein (mutant L1196M 1058-1620), sequence (Q9UM73 1058-1620 L1196M): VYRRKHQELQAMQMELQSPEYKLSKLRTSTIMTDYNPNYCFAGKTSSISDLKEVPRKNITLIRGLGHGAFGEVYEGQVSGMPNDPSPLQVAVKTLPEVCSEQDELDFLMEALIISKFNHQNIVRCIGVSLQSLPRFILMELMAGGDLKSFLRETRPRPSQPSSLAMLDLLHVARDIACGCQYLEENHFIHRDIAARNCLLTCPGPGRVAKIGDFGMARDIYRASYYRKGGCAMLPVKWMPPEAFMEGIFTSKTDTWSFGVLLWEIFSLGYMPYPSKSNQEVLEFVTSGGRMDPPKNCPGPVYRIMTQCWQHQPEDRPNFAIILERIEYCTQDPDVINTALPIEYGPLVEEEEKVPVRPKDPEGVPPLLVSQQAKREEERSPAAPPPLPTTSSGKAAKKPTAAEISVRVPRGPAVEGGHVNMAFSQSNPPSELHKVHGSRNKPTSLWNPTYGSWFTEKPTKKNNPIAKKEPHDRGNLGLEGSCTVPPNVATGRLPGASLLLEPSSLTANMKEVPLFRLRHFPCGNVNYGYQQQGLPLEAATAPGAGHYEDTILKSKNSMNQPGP

GST-Alk protein (wild-type form 1058-1620), sequence (Q9UM73 1058-1620): as the sequence (Q9UM73 1058-1620 L1196M) above, with M139L counted along it

Work on `COc1nc(C)ccc1-c1c(CO)sc2cnc(Nc3cc(C)c(N4CCN(C)CC4)cc3OC(C)C)nc12` [Compound I-191, [7-(2-Methoxy-6-methylpyridin-3-yl)-2-{[5-methyl-4-(4-methylpiperazin-1-yl)-2-(propan-2-yloxy)phenyl]amino}thieno[3,2-d]pyrimidin-6-yl]methanol] yielded an IC50 [1] of 12 nM and an IC50 [2] of 14 nM.
